# Test results as given in patent publication US11985974B2, “Antimicrobial ferulic acid derivatives and uses thereof” (WISCONSIN ALUMNI RESEARCH FOUNDATION, priority 2014, dated 2024).
# Test system: yeast cells
# Experiment: Cell leakage assay (FungaLight, flow cytometry)
# Type: cell-based, Saccharomyces cerevisiae
# Details: 4 h
# Description: A FungaLight Cell Viability Assay (L34952; Invitrogen) using a Guava Flow Cytometer (Millipore) was used to determine if poacic acid caused membrane damage. The population of stained cells (damaged integrity) vs. nonstained cells can be determined by flow cytometry. Caspofungin (50 ng/mL) was included as a positive control. MMS and DMSO were included as a noncell wall-targeting control and a solvent control, respectively. To test the effects of the compounds on both active and arrested cells, log-phase cultures were washed with 1×PBS and resuspended to an OD0.5 in either YPD medium or YP (no carbon source) in the presence of the drugs (n=3) for 4 h at 30° C. The cells were then stained and immediately read by flow cytometry. One-way ANOVA and Tukey's test were used to calculate the difference between drug treatments among cells with arrested growth.
smiles,measurement,setting,value
"COc1cc(/C=C/c2cc(/C=C/C(=O)O)cc(OC)c2O)ccc1O [poacic acid, (E)-4-Hydroxy-3-{2-[(E)-4-hydroxy-3-methoxystyryl]}-5-methoxycinnamic acid]",cell leakage (propidium iodide uptake),actively growing cells (YPD),caused rapid cell leakage
same,cell leakage (propidium iodide uptake),arrested cells without carbon source (YP),leakage was still significantly greater
